Publication PMC4045134, “Discovery of Triterpenoids as Reversible Inhibitors of α/β-hydrolase Domain Containing 12 (ABHD12)” (PLoS ONE, 2014)
“Also recorded” adds a separate entry of the source.

What was measured:
Assay type in all cases: biochemical
[1] = target: T1, CB1R (Rattus norvegicus, UniProt P20272); test: [35S]GTPγS binding, CB1R agonist activity, rat cerebellar membranes; conditions: 10 µM
T1 construct: membranes prepared from brain tissue of 4-week-old male rodents were used; from tissue; host or cells: rat cerebellar membranes
Experimental: (§1) The CB1 and CB2 receptor activity of the selected compounds (10 µM) were measured using the GTPγS binding assay according to the previously described methods, [33].
(§2) For ABPP experiments (Figure 6C) and cannabinoid receptor activity assays (Table S2), membranes prepared from brain tissue of 4-week-old male rodents were used. The animals were obtained from the National Laboratory Animal Centre, University of Eastern Finland. Approval for the harvesting of animal tissue was obtained from the local welfare officer of the University of Eastern Finland.

[2] = target: T2, hABHD6 (Homo sapiens, UniProt Q9BV23); test: Fluorescent glycerol assay in hABHD6-HEK293 lysates; conditions: 10 µM; NI = no inhibition at 10 µM; read-out: hABHD6 Remaining activity % control ± s.e.m (n=3)
T2 construct: expressed in transfected cells; host or cells: HEK293 (transient)
T2 sequence (Q9BV23 1-337): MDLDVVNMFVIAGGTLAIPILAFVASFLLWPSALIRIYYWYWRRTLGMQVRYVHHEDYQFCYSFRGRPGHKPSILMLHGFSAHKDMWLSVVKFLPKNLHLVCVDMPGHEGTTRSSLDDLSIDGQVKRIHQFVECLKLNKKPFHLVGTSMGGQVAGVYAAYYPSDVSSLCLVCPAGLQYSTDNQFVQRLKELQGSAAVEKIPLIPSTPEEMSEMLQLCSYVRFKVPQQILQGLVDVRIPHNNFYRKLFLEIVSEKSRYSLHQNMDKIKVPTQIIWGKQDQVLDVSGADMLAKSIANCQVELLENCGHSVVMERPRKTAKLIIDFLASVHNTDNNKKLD
Experimental: Glycerol liberated from 1-AG hydrolysis was determined with a sensitive fluorescent assay using lysates of HEK293 cells with transient overexpression of hABHD12, hABHD6 or hMAGL, essentially as previously described. […] Fluorescence (λex 530; λem 590 nm) was monitored using a Tecan Infinite M200 plate reader (Tecan Group Ltd., Männedorf, Switzerland). Inhibitory activities of selected compounds towards FAAH were determined using membranes of hFAAH overexpressing COS-7 cells, essentially as previously described. The final incubation volume (100 µL) contained 1 µg of protein and the substrate concentration was 20 µM (10 nM of ^3H-anandamide having specific activity of 60 Ci/mmol and concentration of 1 mCi/mL).

[3] = target: T3, ABHD12 (Mus musculus, UniProt Q99LR1); test: Competitive ABPP with TAMRA-FP in mouse brain membrane proteome; conditions: mouse brain membranes, 1 h inhibitor, 1 h probe
T3 construct: the sole serine hydrolase targeted by the triterpenoids in native brain membrane proteome; from tissue; host or cells: mouse whole-brain membranes
T3 sequence (Q99LR1 1-398): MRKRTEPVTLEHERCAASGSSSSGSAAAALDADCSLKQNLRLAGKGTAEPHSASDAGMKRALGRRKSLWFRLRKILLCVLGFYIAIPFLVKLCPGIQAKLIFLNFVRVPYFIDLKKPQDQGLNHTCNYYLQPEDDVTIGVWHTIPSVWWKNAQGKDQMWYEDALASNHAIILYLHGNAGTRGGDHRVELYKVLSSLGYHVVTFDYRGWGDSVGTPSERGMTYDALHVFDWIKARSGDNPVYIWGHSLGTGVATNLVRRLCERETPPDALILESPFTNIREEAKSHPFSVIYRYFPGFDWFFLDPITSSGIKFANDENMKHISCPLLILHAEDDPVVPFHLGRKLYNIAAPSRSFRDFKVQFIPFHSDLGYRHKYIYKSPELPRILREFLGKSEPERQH
Experimental: (§3) Competitive ABPP using HEK293 cell lysates and mouse brain membranes was conducted to visualize effects of selected triterpenoids on the binding of the active site serine-targeting fluorescent fluorophosphonate probe TAMRA-FP following outlines of previous protocols, [31]. Briefly, lysates (25 µg) of HEK293 cells with or without (Mock) hABHD12 overexpression or mouse wholebrain membranes (100 µg) were treated for 1 h with DMSO or the inhibitor, after which TAMRA-FP labelling was conducted for 5 min (lysates) or 1 hour (membranes) at RT (final probe concentration 2 µM). The reaction was quenched by addition of gel loading buffer (followed by boiling for 5 min in the case of lysates), after which 10 µg protein (10 µl) was loaded per lane and the proteins were resolved in 10% SDS-PAGE together with standards. TAMRA-FP labeling was visualized (λex 552; λem 575 nm) by a fluorescent reader (FLA-3000 laser fluorescence scanner, Fujifilm, Tokyo, Japan). The intensity of bands was quantified using ImageJ, a freely available image analysis software (http://rsbweb.nih.gov/ij/).
as §2

[4] = tested on: metabolic serine hydrolases; test: Competitive ABPP, other serine hydrolases of mouse brain membrane proteome
Experimental: as §3
For ABPP experiments (Figure 6C) and cannabinoid receptor activity assays (Table S2), membranes prepared from brain tissue of 4-week-old male rodents were used. The animals were obtained from the National Laboratory Animal Centre, University of Eastern Finland. […]

[5] = target: T1, CB1R; test: [35S]GTPγS binding, CB1R antagonist activity, rat cerebellar membranes; conditions: 10 µM
Experimental: as §1, §2

[6] = target: T4, hCB2R (Homo sapiens, UniProt P34972); test: [35S]GTPγS binding, CB2R agonist activity, hCB2R-CHO cell membranes; conditions: 10 µM
T4 construct: expressed in transfected cells; host or cells: CHO

[7] = target: T5, hABHD12 (Homo sapiens, UniProt Q8N2K0); test: Fluorescent glycerol assay of 1-AG hydrolysis in hABHD12-HEK293 lysates; conditions: hABHD12-HEK293 lysates
T5 construct: expressed in transfected cells; host or cells: HEK293 (transient)
T5 sequence (Q8N2K0 1-398): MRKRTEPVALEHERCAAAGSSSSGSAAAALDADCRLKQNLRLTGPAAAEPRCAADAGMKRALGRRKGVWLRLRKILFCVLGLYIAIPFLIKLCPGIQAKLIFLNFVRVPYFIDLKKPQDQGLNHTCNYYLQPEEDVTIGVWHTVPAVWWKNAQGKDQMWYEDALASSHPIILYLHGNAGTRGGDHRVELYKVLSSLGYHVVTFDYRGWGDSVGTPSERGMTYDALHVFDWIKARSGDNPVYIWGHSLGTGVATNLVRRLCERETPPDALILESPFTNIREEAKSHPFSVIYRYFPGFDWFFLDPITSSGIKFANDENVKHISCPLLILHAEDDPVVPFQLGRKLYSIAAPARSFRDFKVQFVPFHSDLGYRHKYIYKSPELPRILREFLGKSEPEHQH

T1 sequence (P20272 whole entry): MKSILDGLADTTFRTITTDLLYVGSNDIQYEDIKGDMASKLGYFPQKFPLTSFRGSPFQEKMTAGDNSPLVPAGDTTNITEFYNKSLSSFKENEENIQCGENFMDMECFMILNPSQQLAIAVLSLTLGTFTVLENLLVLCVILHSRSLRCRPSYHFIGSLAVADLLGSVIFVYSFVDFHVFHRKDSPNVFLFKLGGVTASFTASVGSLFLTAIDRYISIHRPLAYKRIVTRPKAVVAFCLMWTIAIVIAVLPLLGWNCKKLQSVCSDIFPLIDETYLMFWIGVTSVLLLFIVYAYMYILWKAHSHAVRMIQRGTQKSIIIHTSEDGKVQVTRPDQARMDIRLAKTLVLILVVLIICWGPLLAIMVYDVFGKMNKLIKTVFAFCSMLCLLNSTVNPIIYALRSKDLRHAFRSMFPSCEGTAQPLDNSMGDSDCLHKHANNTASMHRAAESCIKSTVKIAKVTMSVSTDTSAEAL
T4 sequence (P34972 whole entry): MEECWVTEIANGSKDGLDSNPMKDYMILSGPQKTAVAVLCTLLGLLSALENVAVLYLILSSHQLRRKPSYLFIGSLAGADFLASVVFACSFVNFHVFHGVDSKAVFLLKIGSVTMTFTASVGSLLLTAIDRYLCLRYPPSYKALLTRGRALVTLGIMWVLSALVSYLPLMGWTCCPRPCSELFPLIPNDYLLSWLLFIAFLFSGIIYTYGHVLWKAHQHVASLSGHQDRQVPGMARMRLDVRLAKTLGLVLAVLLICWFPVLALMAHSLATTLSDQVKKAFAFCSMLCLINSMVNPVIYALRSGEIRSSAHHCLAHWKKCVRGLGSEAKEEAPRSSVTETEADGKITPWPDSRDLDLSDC

CC1(C)CC[C@]2(C(=O)O)CC[C@]3(C)C(=CC[C@@H]4[C@@]5(C)C[C@@H](O)[C@H](O)C(C)(C)[C@@H]5CC[C@]43C)[C@@H]2C1 [Compound 8, Maslinic acid, reference compound]
CB1R agonist activity [35S]GTPγS binding % Basal (Mean (range), n=2) [1]: 93 (88-97) % Basal
remaining activity at 10 µM [2]: > 100%
TAMRA-FP probe labeling of ABHD12 [3]: selectively inhibited probe labeling of ABHD12; also recorded: dose-dependently inhibit TAMRA-FP labeling of ABHD12 already at 20 µM
additional targets among the metabolic serine hydrolases [4]: no additional targets are evident
CB1R antagonist activity [35S]GTPγS binding % HU210-evoked response (Mean (range), n=2) [5]: 99 (97-102) % HU210-evoked response
CB2R agonist activity [35S]GTPγS binding % Basal (Mean (range), n=2) [6]: 114 (104-123) % Basal
IC50 ([7]; three independent experiments, read-out: -logIC50±s.e.m. (converted)): 1.26 µM
Emax ([7]; read-out: max inhibition (converted)): 89%
